Measured values reported in patent US8658619B2, “Methods of treating subclinical sun damage” (priority 2010, dated 2014).

Tested on: subclinical sun damage
Assay: Follow-up treatments of one patient on a substantially annual basis
Format: in vivo, human
Details: each time after the first treatment
Text: In order to assess the scope of original treatment, one patient received further treatments over a substantially annual basis. In Table 4, treatment #, days since last treatment, and observations are provided. […] From this, it was concluded that all of the subclinical sun damage treated most likely resolved during each cycle of therapy. Subsequent milder reactions appear to have treated new subclinical sun damage or possible recurrent sun damage. […] The freckle also resolved itself after follow-up treatment #1. During follow-up treatment #2, FIG. 4C, there was no sign of the freckle. That is, where there may not have been a response during an earlier treatment, a subsequent treatment invoked a response. Moreover, responses to successive treatments, if any, were not as severe as the initial response. […] It is also concluded that annual treatment aids in preventing actinic keratoses from forming as well as eliminates any new sun damage.

## O=c1[nH]cc(F)c(=O)[nH]1 [5-FU, 5-fluorouracil]
  response in follow-up treatments: mild erythema
